Tests used:
[1] = target: C-C chemokine receptor type 2 (Homo sapiens, UniProt P41597); experiment: Displacement of [125I]MCP1 from CCR2 in human THP1 cell membranes after 8 hrs by scintillation counting analysis; set-up: species or system THP-1
[2] = target: C-C chemokine receptor type 5 (Homo sapiens, UniProt P51681); experiment: Displacement of [125I]RANTES from human CCR5 expressed in CHO cell membranes coexpressing Gal6 after 6 hrs by scintillation counting analysis
Chain of C-C chemokine receptor type 5 (P51681 whole entry): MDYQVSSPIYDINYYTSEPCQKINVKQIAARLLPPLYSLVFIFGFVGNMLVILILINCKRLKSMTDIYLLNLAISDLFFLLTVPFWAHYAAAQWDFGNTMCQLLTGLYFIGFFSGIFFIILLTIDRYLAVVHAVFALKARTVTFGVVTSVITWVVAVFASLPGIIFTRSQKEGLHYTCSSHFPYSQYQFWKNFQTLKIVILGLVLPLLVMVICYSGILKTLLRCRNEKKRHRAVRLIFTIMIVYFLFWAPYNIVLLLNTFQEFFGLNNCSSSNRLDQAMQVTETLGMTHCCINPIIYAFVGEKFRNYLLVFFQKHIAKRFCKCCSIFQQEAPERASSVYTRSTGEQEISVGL

Chain of C-C chemokine receptor type 2 (P41597 whole entry): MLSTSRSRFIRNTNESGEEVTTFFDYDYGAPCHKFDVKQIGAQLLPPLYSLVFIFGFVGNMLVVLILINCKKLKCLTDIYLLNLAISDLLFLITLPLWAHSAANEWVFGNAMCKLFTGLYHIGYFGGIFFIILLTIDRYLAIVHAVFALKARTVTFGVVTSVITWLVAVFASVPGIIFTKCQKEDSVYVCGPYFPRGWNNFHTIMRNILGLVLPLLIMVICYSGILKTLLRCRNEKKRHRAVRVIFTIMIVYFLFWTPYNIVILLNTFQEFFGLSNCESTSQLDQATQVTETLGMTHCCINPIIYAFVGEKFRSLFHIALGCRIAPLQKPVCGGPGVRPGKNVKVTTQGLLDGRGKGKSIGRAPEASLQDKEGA

CO[C@@H]1COCC[C@@H]1NC1CCN(C(=O)c2nc(C(F)(F)F)nc(N3CCc4cc(C(F)(F)F)ccc4C3)c2C)CC1
Ki [1]: 2 nM
Ki [2]: 150 nM

From ChEMBL document CHEMBL2331291, “Targeting CCR2 Receptor To Treat Inflammation Diseases and Disorders” (ACS Med Chem Lett, 2013)
